Assay results reported in ChEMBL document CHEMBL5543087 (Eur J Med Chem, 2024).
Structures can show the parent of a compound that is named as a salt. Numbered stars: 1 amine (or outer) side, 2 acyl side, 3 side chain; on linkers, the order of the positions; unused ones are H or OH. Square brackets hold non-standard residues; d marks the D form. Peptide text beside a SMILES is read from it. * marks the point of attachment. X2 = C[C@@](N[*:1])(C(=O)[*:2])C(F)(F)F; X1 = C[C@](N[*:1])(C(=O)[*:2])C(F)(F)F; Sta = CC(C)C[C@H](N)[C@@H](O)CC(=O)O; Cbz = O=C(OCc1ccccc1)*; Tfa = O=C(C(F)(F)F)*

What was measured:
SK-OV-3 [1] = experiment: Cytotoxicity against human SK-OV-3 cells assessed as change in cell cytoskeleton at 40 uM incubated for 24 hrs by phalloidin fluorescent staining analysis; format: toxicity, cell-based; details: sk-ov-3, 24 h
SK-OV-3 [2] = experiment: Cytotoxicity against human SK-OV-3 cells assessed as cell retraction at 40 uM incubated for 24 hrs by DAPI fluorescent staining analysis; format: toxicity, cell-based; details: sk-ov-3, 24 h
SK-OV-3 [3] = experiment: Cytotoxicity against human SK-OV-3 cells assessed as change in fibronectin matrix organization at IC50 incubated for 24 hrs by phalloidin fluorescent staining analysis; format: toxicity, cell-based; details: sk-ov-3, 24 h
SK-OV-3 [4] = experiment: Cytotoxicity against human SK-OV-3 cells assessed as change in cell cytoskeleton at IC50 incubated for 24 hrs by phalloidin fluorescent staining analysis; format: toxicity, cell-based; details: sk-ov-3, 24 h
SK-OV-3 [5] = experiment: Cytotoxicity against human SK-OV-3 cells assessed as change in fibronectin matrix organization at 40 uM incubated for 24 hrs by phalloidin fluorescent staining analysis; format: toxicity, cell-based; details: sk-ov-3, 24 h
SK-OV-3 [6] = experiment: Cytotoxicity against human SK-OV-3 cells assessed as change in nucleus morphology at IC50 incubated for 24 hrs by DAPI fluorescent staining analysis; format: toxicity, cell-based; details: sk-ov-3, 24 h
[7] = Inhibition of porcine gastric mucosa Pepsin using MCA labeled GKPILFFRLK(DNP)-D-R-NH2 as substrate preincubated for 10 mins followed by substrate addition by FRET assay; design: species or system Sus scrofa
SK-OV-3 [8] = experiment: Cytotoxicity against human SK-OV-3 cells assessed as increase in LDH activity at 40 uM incubated upto 96 hrs; format: toxicity, cell-based; details: sk-ov-3, 96 h
SK-OV-3 [9] = experiment: Cytotoxicity against human SK-OV-3 cells assessed as increase in LDH activity at IC50 incubated upto 96 hrs; format: toxicity, cell-based; details: sk-ov-3, 96 h
BJ [10] = experiment: Cytotoxicity against human BJ cells assessed as increase in LDH activity at IC50 incubated upto 96 hrs; format: toxicity, cell-based
[11] = Chromatographic hydrophobicity index of compound incubated for 20 mins by reversed-phase HPLC analysis; format: ADME
SK-OV-3 [12] = experiment: Cytotoxicity against human SK-OV-3 cells assessed as diffused F-actin network at IC50 incubated for 24 hrs by phalloidin fluorescent staining analysis; format: toxicity, cell-based; details: sk-ov-3, 24 h
BJ [13] = experiment: Cytotoxicity against human BJ cells assessed as increase in LDH activity incubated for 24 hrs; format: toxicity, cell-based
SK-OV-3 [14] = experiment: Cytotoxicity against human SK-OV-3 cells assessed as change in cell morphology at IC50 incubated for 24 hrs by DAPI fluorescent staining analysis; format: toxicity, cell-based; details: sk-ov-3, 24 h
[15] = Lipophilicity, logP of compound in n-Octanol/water; format: physicochemical
SK-OV-3 [16] = experiment: Cytotoxicity against human SK-OV-3 cells assessed as increase in LDH activity incubated for 24 hrs; format: toxicity, cell-based; details: sk-ov-3, 24 h
SK-OV-3 [17] = experiment: Cytotoxicity against human SK-OV-3 cells assessed as change in fibronectin matrix organization at 28 uM incubated for 24 hrs by phalloidin fluorescent staining analysis; format: toxicity, cell-based; details: sk-ov-3, 24 h
SK-OV-3 [18] = experiment: Cytotoxicity against human SK-OV-3 cells assessed as cell retraction at 28 uM incubated for 24 hrs by DAPI fluorescent staining analysis; format: toxicity, cell-based; details: sk-ov-3, 24 h
SK-OV-3 [19] = experiment: Cytotoxicity against human SK-OV-3 cells assessed as change in cell cytoskeleton at 28 uM incubated for 24 hrs by phalloidin fluorescent staining analysis; format: toxicity, cell-based; details: sk-ov-3, 24 h
SK-OV-3 [20] = experiment: Cytotoxicity against human SK-OV-3 cells assessed as increase in LDH activity at 28 uM incubated upto 96 hrs; format: toxicity, cell-based; details: sk-ov-3, 96 h
Cathepsin D = Cathepsin D (Homo sapiens, UniProt P07339); experiment: Inhibition of human Cathepsin D using MCA labeled GKPILFFRLK(DNP)-D-R-NH2 as substrate preincubated for 10 mins followed by substrate addition by FRET assay
Chain of Cathepsin D (P07339 65-162 limits assumed): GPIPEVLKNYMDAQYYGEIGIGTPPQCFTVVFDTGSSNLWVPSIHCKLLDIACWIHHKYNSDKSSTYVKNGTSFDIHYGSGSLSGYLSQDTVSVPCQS
Chain of Cathepsin D (P07339 169-412 limits assumed): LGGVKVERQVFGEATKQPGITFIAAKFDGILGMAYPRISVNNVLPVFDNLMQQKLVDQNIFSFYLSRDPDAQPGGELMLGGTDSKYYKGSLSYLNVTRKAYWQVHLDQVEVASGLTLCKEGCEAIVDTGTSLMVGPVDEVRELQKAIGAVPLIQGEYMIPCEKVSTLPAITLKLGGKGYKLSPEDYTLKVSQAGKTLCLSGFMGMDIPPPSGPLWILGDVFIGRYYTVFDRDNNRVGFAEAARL

Compound | IC50 [7] [nM] | CHI [11] | logP [15] | Activity (BJ [13]) | Activity (SK-OV-3 [16]) | also measured
CC(C)CC(=O)N[C@@H](C(=O)N[C@H](C(=O)N[C@@H](CC(C)C)[C@@H](O)CC(=O)N[C@@H](C)C(=O)N[C@@H](CC(C)C)[C@@H](O)CC(=O)O)C(C)C)C(C)C | 21 | – | – | Non-Toxic | Non-Toxic | –
CC(C)C[C@H](NC(=O)[C@H](C)NC(=O)C[C@H](O)[C@H](CC(C)C)NC(=O)[C@@H](NC(=O)[C@](C)(NC(=O)OCc1ccccc1)C(F)(F)F)C(C)C)[C@@H](O)CC(=O)O (Cbz-[X1]V[Sta]A[Sta]-OH) | 48 | 47.24 | 3.36 | Non-Toxic | Non-Toxic | Activity (SK-OV-3 [17]): Toxic; Activity (SK-OV-3 [18]): Toxic; Activity (SK-OV-3 [19]): Toxic; Activity (SK-OV-3 [3]): Toxic; Activity (SK-OV-3 [4]): Toxic; Activity (SK-OV-3 [6]): Toxic; Activity (SK-OV-3 [9]): Non-Toxic; Activity (BJ [10]): Non-Toxic; Activity (SK-OV-3 [20]): Toxic; Activity (SK-OV-3 [12]): Toxic; Activity (SK-OV-3 [14]): Toxic
CC(C)C[C@H](NC(=O)[C@H](C)NC(=O)C[C@H](O)[C@H](CC(C)C)NC(=O)[C@@H](NC(=O)[C@@](C)(NC(=O)OCc1ccccc1)C(F)(F)F)C(C)C)[C@@H](O)CC(=O)O (Cbz-[X2]V[Sta]A[Sta]-OH) | 375 | 49.19 | 3.97 | Non-Toxic | Non-Toxic | –
CC(C)CC(=O)N[C@H](C(=O)N[C@H](C(=O)N[C@@H](CC(C)C)[C@@H](O)CC(=O)N[C@@H](C)C(=O)N[C@@H](CC(C)C)[C@@H](O)CC(=O)O)C(C)C)C(C)C [PEPSTATIN] | 50 | 39.55 | 2.37 | – | – | –

Further lines, with some results ahead:

IC50 [7] [nM] | CHI [11] | logP [15] | Compound | Activity (BJ [13]) | Activity (SK-OV-3 [16]) | also measured
31 | 45.85 | 3.3 | CC(C)CC(=O)N[C@H](CCSC(F)(F)F)C(=O)N[C@H](C(=O)N[C@@H](CC(C)C)[C@@H](O)CC(=O)N[C@@H](C)C(=O)N[C@@H](CC(C)C)[C@@H](O)CC(=O)O)C(C)C | Non-Toxic | Non-Toxic | Activity (SK-OV-3 [1]): Toxic; Activity (SK-OV-3 [2]): Toxic; Activity (SK-OV-3 [3]): Toxic; Activity (SK-OV-3 [4]): Toxic; Activity (SK-OV-3 [5]): Toxic; Activity (SK-OV-3 [6]): Toxic; Activity (SK-OV-3 [8]): Toxic; Activity (SK-OV-3 [9]): Non-Toxic; Activity (BJ [10]): Non-Toxic; Activity (SK-OV-3 [12]): Toxic; Activity (SK-OV-3 [14]): Toxic
193 | – | – | CC(C)CC(=O)N[C@@H](C(=O)N[C@H](C(=O)N[C@@H](CCSC(F)(F)F)[C@@H](O)CC(=O)N[C@@H](C)C(=O)N[C@@H](CC(C)C)[C@@H](O)CC(=O)O)C(C)C)C(C)C | – | – | –
775 | 46.95 | 3.33 | CC(C)CC(=O)N[C@@H](CCSC(F)(F)F)C(=O)N[C@H](C(=O)N[C@@H](CC(C)C)[C@@H](O)CC(=O)N[C@@H](C)C(=O)N[C@@H](CC(C)C)[C@@H](O)CC(=O)O)C(C)C | Non-Toxic | Non-Toxic | –
> 4000 | 43.68 | 2.44 | CC(C)C[C@H](NC(=O)[C@H](C)NC(=O)C[C@H](O)[C@H](CC(C)C)NC(=O)[C@@H](NC(=O)[C@@H](NC(=O)C(F)(F)F)C(C)C)C(C)C)[C@@H](O)CC(=O)O (Tfa-VV[Sta]A[Sta]-OH) | – | – | IC50 (Cathepsin D): > 2000 nM
